# In US10307409B2, “Muscarinic combinations and their use for combating hypocholinergic disorders of the central nervous system” (Chase Pharmaceuticals Corporation, priority 2015, dated 2019):
# Tests used:
# Male Swiss mice [1] = experiment: Dose-response to xanomeline in a mouse model of diarrhea (fecal pellet count); type: in vivo; conditions: xanomeline i.p. 0.3 to 30 mg/kg
# Text: Male Swiss mice (4-6 weeks old), N=10 per treatment group were used, and treated intra-peritoneally (i.p.) with either vehicle (vehicle group) or increasing doses of xanomeline, a representative muscarinic agonist. Mice were randomly assigned to one of two experimental groups (vehicle; or increasing doses of xanomeline). Each animal was identified by its group name, cage number, series (day) of experiment, and number (1 to 10) written with permanent ink on the tail.
# Mice were placed individually in cages without any bedding materials. During the experiment the number of fecal pellets were counted at different time-points, starting one hour before the time of the administration of the test compound (T0), as outlined below: • T−1 h to T0: counting of the accumulated fecal pellets excreted. • T0: administration of the test compound, • T0 to T+2 h: counting of the accumulated fecal pellets excreted. • T+2 h to T+4 h: counting of the accumulated fecal pellets excreted.
# (§1) The total number of fecal pellets for each mouse was counted over time. An analysis of variance (ANOVA) was performed on the results. Fisher's Protected Least Significant Difference was used for pairwise comparisons; p values ≤0.05 were considered significant. Grubbs' test (http://www.graphpad.com/quickcs/Grubbs1.cfm) was used to detect outliers for each parameter in each experimental group.
# [2] = test system: patients with Alzheimer disease; experiment: Xanomeline 6-month double-blind, placebo-controlled, parallel group trial in Alzheimer disease patients; type: in vivo, human; conditions: in view of Mirza 2003; i.e. 225 mg/day
# Text: A close analog of tazomeline, the 3-(4-hexyloxy-1,2,5-thiadiazol-3-yl)-1-methyl-5,6-dihydro-2H-pyridine known as xanomeline and described in U.S. Pat. No. 5,043,345, the disclosure of which is incorporated herein by reference in its entirety, has been disclosed as a muscarinic acetylcholine receptor agonist with reasonable selectivity for the M1 and M4 subtypes. The efficacy of xanomeline, which stimulates muscarinic receptors in the brain and in the periphery was studied in patients with Alzheimer disease in a 6-month double-blind, placebo-controlled, parallel group trial. […] Such side effects prevented the use of doses of xanomeline that could achieve maximum anti-dementia efficacy and reflect stimulation of cholinergic receptors outside the brain.
# Dose-limiting adverse events attending the use of drugs that stimulate cholinergic transmission, such as xanomeline, appear to primarily reflect the excessive stimulation of peripheral cholinergic receptors, especially those of the muscarinic type (mAChRs), such that in both healthy volunteers and Alzheimer's patients many of these side effects have been reported for xanomeline; in the patient population this led to a discontinuation rate higher than 50% while the effects on cognition were not robust and mainly seen at the highest doses tested (Mirza2003).
# [3] = clinical study, Sramek 1995; cited from earlier work
# [4] = test system: patients with Alzheimer disease; conditions: cited from earlier work
# primate = primate study, domperidone administered with BuTAC; cited from earlier work
# [5] = clinical trials, Alzheimer disease; cited from earlier work
# Male Swiss mice [6] = experiment: T-maze continuous alternation task (T-CAT) with oxybutynin and xanomeline; type: in vivo; conditions: i.p. oxybutynin pretreatment 30 min before xanomeline
# Text: The T-maze continuous alternation task (T-CAT) is useful as model for studying compounds with cognitive enhancing properties. The T-maze consists of 2 choice arms and 1 start arm mounted to a square center. Manual doors are provided to close specific arms during the force choice alternation task.
# Male Swiss mice (4-6 weeks old), N=10 per treatment group were used, and were pretreated with: • Oxybutynin at the dose that blocked fecal pellet excretion in Study 2 of Example 1.
# Mice were randomly assigned to one of the different experimental treatment groups. Each animal was identified by its group name, cage number, series (day) of experiment, and number (1 to 10) written with permanent ink on the tail.
# The T-maze apparatus is made of gray Plexiglas with a main stem (55 cm long×10 cm wide×20 cm high) and two arms (30 cm long×10 cm wide×20 cm high) positioned at 90 degree angle relative to the main stem. A start box (15 cm long×10 cm wide) is separated from the main stem by a guillotine door. […]
# The percentage of alternation over the 14 free-choice trials was determined for each mouse and was used as an index of working memory performance. […]
# Analysis of variance (ANOVA) was performed on the results. […] The drug-induced improvement of memory was calculated by setting the respective response of the saline/vehicle as 100% and that of the test group as 0% reversion. […]
# Male Swiss mice [7] = experiment: Antagonism of xanomeline-induced diarrhea in mice by oxybutynin (fecal pellet count); type: in vivo; conditions: i.p. oxybutynin 0.3 to 30 mg/kg, 30 min before xanomeline 30 mg/kg
# Experimental: Male Swiss mice (4-6 weeks old), N=10 per treatment group were used. Animals were pretreated with i.p. oxybutynin (a representative peripheral muscarinic receptor antagonist) or vehicle; 30 minutes later animals were treated with xanomeline at a dose of 30 mg/kg that caused diarrhea (as determined in Experiment 1). The dose of oxybutynin ordinarily ranged from 0.3 to 30 mg/kg.
# Mice were placed individually in cages without any bedding materials. During the experiment the number of fecal pellets was counted at different time-points as outlined below: • T−1 h to T0: counting of the accumulated fecal pellets excreted. • T0: administration of oxybutinin. • T30 min: administration of vehicle or xanomeline. • T 30 min to T 2.5 h: counting of accumulated fecal pellets excreted. • T+2.5 h to T+4.5 h: counting of accumulated fecal pellets excreted.
# as §1, with “comparisons. The” for “comparisons;”, “value” for “values”, “(http//www atgraphpad.com/quickcalcs/Grubbs1.cfm)” for “(http://www.graphpad.com/quickcs/Grubbs1.cfm)”
# [8] = transdermal [14C]oxybutynin, rats; cited from earlier work
smiles,measurement,setting,value
"CCCCCCOc1nsnc1C1=CCCN(C)C1 [xanomeline, 3-(4-hexyloxy-1,2,5-thiadiazol-3-yl)-1-methyl-5,6-dihydro-2H-pyridine]",diarrhea (fecal pellets excreted),Male Swiss mice [1],dose-dependently causes diarrhea
same,maximum tolerated dose as considered in the context of the present invention,[2],75 mg three times per day
same,MTD,[3],100 mg three times a day
same,patients who discontinued treatment,"[4]; 75 mg xanomeline orally three times daily, 6-month study, mainly adverse events, predominantly gastrointestinal",59%
same,cognitive and behavioral symptoms of Alzheimer disease compared to placebo,[4]; 6-month trial (Bodick 1997; Shekhar 2008),significantly improve cognitive and behavioral symptoms
same,"side effects (bradycardia, gastro-intestinal distress, excessive salivation, sweating)",[4]; 6-month trial,dose-dependent unacceptable side effects
same,discontinuation rate in the patient population,[4]; Alzheimer's patients (Mirza 2003),higher than 50%
"O=c1[nH]c2ccccc2n1CCCN1CCC(n2c(=O)[nH]c3cc(Cl)ccc32)CC1 [domperidone, 5-chloro-1-(1-[3-(2-oxo-2,3-dihydro-1H-benzo[d]imidazol-1-yl)propyl]piperidin-4-yl)-1H-benzo[d]imidazol-2(3H)-one]",effect on BuTAC-induced vomiting,primate,mitigated
"CO/N=C/C1=CCCN(C)C1 [milameline, (E)-N-methoxy-1-(1-methyl-1,2,5,6-tetrahydropyridin-3-yl)methanimine]",maximum tolerated dose,[5],2 mg four times per day
"CCN(CC)CC#CCOC(=O)C(O)(c1ccccc1)C1CCCCC1 (stereo not drawn) [oxybutynin, 4-diethylaminobut-2-ynyl 2-cyclohexyl-2-hydroxy-2-phenylethanoate]",ability to perform the T-maze test after oxybutynin pretreatment,Male Swiss mice [6],restored the animals' ability to perform the T-maze test
same,antagonism of xanomeline-induced diarrhea,Male Swiss mice [7],dose-dependently antagonized the diarrhea induced by xanomeline
same,brain penetration of radiolabel,[8],presence of radiolabel in the brain
